Values quoted from earlier work in US20130031645A1, “METHOD FOR HEPATIC DIFFERENTIATION OF DEFINITIVE ENDODERM CELLS” (priority 2009, published 2013).

How the values were obtained:
[1] = test system: retinoic acid receptors (RARs)

For CC1=C(/C=C/C(C)=C/C=C/C(C)=C/C(=O)O)C(C)(C)CCC1 [ATRA, All-trans retinoic acid], the “affinity for the three RAR subtypes” value [1] is given as “approximately equal affinity” and the “binding to the RXR receptors” value (RXR receptors) is given as “does not bind”.
